In patent publication US20250163104A1, “MACROCYCLIC IMMUNOMODULATORS” (priority 2021, published 2025):
*1 amine or outer side, *2 acyl side, *3 side chain or, on linkers, in order; H or OH if unused. Where a SMILES comes first, the peptide text is derived from it. Bridges are numbered along the chain shown (N, C = ends). [ ]: non-standard residue; d: D form. The star is where a group is joined. X4 = O=C([C@H](CCNC[C@@H](O)[C@H](O)[C@H](O)[C@@H](O)[C@H](O)CO)N[*:1])[*:2]; Phe(4-COOH) = N[C@@H](Cc1ccc(C(=O)O)cc1)C(=O)O; Bip = N[C@@H](Cc1ccc(-c2ccccc2)cc1)C(=O)O; Phe(3-Me) = Cc1cccc(C[C@H](N)C(=O)O)c1; Val(3-OH) = CC(C)(O)[C@H](N)C(=O)O; Cha = N[C@@H](CC1CCCCC1)C(=O)O; Cit = NC(=O)NCCC[C@H](N)C(=O)O; Carboxymethyl = O=C(O)C*; Nle = CCCC[C@H](N)C(=O)O; Orn = NCCC[C@H](N)C(=O)O; Pra = C#CC[C@H](N)C(=O)O; Dab = NCC[C@H](N)C(=O)O; Nva = CCC[C@H](N)C(=O)O; Dap = NC[C@H](N)C(=O)O; CF3 = FC(F)(F)*

target: T1, human PD-1 / PD-L1-Ig binding on Jurkat cell line over-expressing human PD-1 (Jurkat-PD-1) (Homo sapiens, UniProt Q15116); experiment: Jurkat-PD-1 Cell Binding High-Content Screening Assay (CBA); type: cell-based; conditions: Jurkat-PD-1 cells, PE-labeled PD-L1-Ig 20 nM final; read-out: Jurkat HPD1_PDL1 IC50
T1 construct: expressed in transfected cells; host or cells: Jurkat
T1 sequence (Q15116 25-288): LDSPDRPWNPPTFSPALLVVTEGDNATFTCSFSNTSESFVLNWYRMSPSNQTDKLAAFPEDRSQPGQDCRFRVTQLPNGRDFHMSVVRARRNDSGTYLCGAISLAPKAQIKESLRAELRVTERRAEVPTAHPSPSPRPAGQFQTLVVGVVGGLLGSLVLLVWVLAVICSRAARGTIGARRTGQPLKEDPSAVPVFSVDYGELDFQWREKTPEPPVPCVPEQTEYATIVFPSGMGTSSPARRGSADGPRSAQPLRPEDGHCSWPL
Procedure, shortened: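 PE-PD-L1-Ig 20 nM final; cells in DMEM/10% FCS; cpd pre-incubation 2 h, 37° C; ligand 1 h; PFA fix + Hoechst 33342; high-content imaging read-out.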

In order of falling IC50:
1. C#CC[C@H](NC(=O)[C@@H]1CSCC(=O)N[C@@H](CCC)C(=O)N[C@@H](Cc2ccc(OCC(=O)O)cc2)C(=O)N[C@@H](CC(=O)O)C(=O)N[C@@H](Cc2cccc(C)c2)C(=O)N[C@@H](Cc2ccc(OCC(=O)O)cc2)C(=O)N[C@@H](Cc2ccc(-c3ccccc3)cc2)C(=O)N[C@@H](Cc2ccc(OCC(=O)O)cc2)C(=O)N[C@@H](CCCC)C(=O)N[C@H](CC(C)C)C(=O)N[C@@H](CCNC[C@@H](O)[C@H](O)[C@H](O)[C@@H](O)[C@H](O)CO)C(=O)N[C@@H](CC2CCCCC2)C(=O)N[C@@H](C(C)C)C(=O)N[C@@H](CCC(=O)O)C(=O)N1)C(=O)O [Compound 2699] ({CH2CO}-[Nva]Y(Carboxymethyl)D[Phe(3-Me)]Y(Carboxymethyl)[Bip]Y(Carboxymethyl)[Nle][dL][X4][Cha]VEC[Pra]-OH; thioether N-14)  0.239 µM
2. CCCC[C@@H]1NC(=O)CSC[C@@H](C(=O)N[C@@H](CCN)C(N)=O)NC(=O)[C@H](CCC(=O)O)NC(=O)[C@H](C(C)C)NC(=O)[C@H](CC2CCCCC2)NC(=O)[C@H](CCN)NC(=O)[C@@H](CC(C)C)NC(=O)[C@H](CCCN)NC(=O)[C@H](Cc2ccc(C(=O)O)cc2)NC(=O)[C@H](Cc2ccc(-c3ccccc3)cc2)NC(=O)[C@H](Cc2ccc(C(=O)O)cc2)NC(=O)[C@H](Cc2cccc(C)c2)NC(=O)[C@H](CC(N)=O)NC(=O)[C@H](Cc2ccc(OCC(=O)O)cc2)NC1=O [Example 2723] ({CH2CO}-[Nle]Y(Carboxymethyl)N[Phe(3-Me)][Phe(4-COOH)][Bip][Phe(4-COOH)][Orn][dL][Dab][Cha]VEC[Dab]-NH2; thioether N-14)  0.2 µM
3. CC(C)C[C@@H]1NC(=O)[C@H](CCN)NC(=O)[C@@H](CC(C)C)NC(=O)[C@H](CCN)NC(=O)[C@H](CCC(=O)O)NC(=O)[C@H](Cc2ccc(-c3ccccc3)cc2)NC(=O)[C@H](C(C)C)NC(=O)[C@H](Cc2c[nH]c3ccccc23)NC(=O)[C@H](CC(=O)O)NC(=O)[C@H](Cc2ccc(C(=O)O)cc2)NC(=O)[C@H](Cc2ccc(OCC(=O)O)cc2)NC(=O)CSC[C@@H](C(=O)N[C@@H](C)C(N)=O)NC(=O)[C@H](CO)NC(=O)[C@H](C(C)C)NC1=O [Compound 1269] ({CH2CO}-Y(Carboxymethyl)[Phe(4-COOH)]DWV[Bip]E[Dab][dL][Dab]LVSCA-NH2; thioether N-14)  0.0404 µM
4. Cc1cccc(C[C@@H]2NC(=O)[C@H](CC(=O)O)NC(=O)[C@H](Cc3ccc(OCC(=O)O)cc3)NC(=O)[C@H](Cc3ccc(OCC(=O)O)cc3)NC(=O)CSC[C@@H](C(N)=O)NC(=O)[C@H](CO)NC(=O)[C@H](C(C)C)NC(=O)[C@H](CC(C)C)NC(=O)[C@H](CCN)NC(=O)[C@@H](CC(C)C)NC(=O)[C@H](CCCN)NC(=O)[C@H](CCCNC(N)=O)NC(=O)[C@H](Cc3ccc(-c4ccccc4)cc3)NC(=O)[C@H](CC(C)C)NC2=O)c1 [Compound 1656] ({CH2CO}-Y(Carboxymethyl)Y(Carboxymethyl)D[Phe(3-Me)]L[Bip][Cit][Orn][dL][Dab]LVSC-NH2; thioether N-14)  0.0364 µM
5. Cc1cccc(C[C@@H]2NC(=O)[C@H](CC(=O)O)NC(=O)[C@H](Cc3ccc(C(=O)O)cc3)NC(=O)[C@H](Cc3ccc(OCC(=O)O)cc3)NC(=O)CSC[C@@H](C(=O)N[C@H](Cc3ccc(O)cc3)C(=O)O)NC(=O)[C@H](CCCN)NC(=O)[C@H](C(C)C)NC(=O)[C@H](CC3CCCCC3)NC(=O)[C@H](CCN)NC(=O)[C@@H](CC(C)C)NC(=O)[C@H](CCN)NC(=O)[C@H](C(C)C)NC(=O)[C@H](Cc3ccc(-c4ccccc4)cc3)NC(=O)[C@H](C(C)C)NC2=O)c1 [Compound 2589] ({CH2CO}-Y(Carboxymethyl)[Phe(4-COOH)]D[Phe(3-Me)]V[Bip]V[Dab][dL][Dab][Cha]V[Orn]C[dY]-OH; thioether N-14)  0.0343 µM
6. CC(C)C[C@H]1NC(=O)[C@H](CCCN)NC(=O)[C@H](CCC(=O)O)NC(=O)[C@H](Cc2ccc(-c3ccccc3)cc2)NC(=O)[C@H](C(C)C)NC(=O)[C@H](Cc2cccc(C(F)(F)F)c2)NC(=O)[C@H](CC(=O)O)NC(=O)[C@H](Cc2ccc(O)cc2)NC(=O)[C@H](Cc2ccncc2)NC(=O)CSC[C@@H](C(=O)N[C@@H](C)C(N)=O)NC(=O)[C@H]([C@@H](C)O)NC(=O)[C@H](C(C)C)NC(=O)[C@H](CC2CCCCC2)NC(=O)[C@H](CCN)NC1=O [Compound 1464]  0.0258 µM
7. CC(C)C[C@H]1NC(=O)[C@H](CCCN)NC(=O)[C@H](CCCN)NC(=O)[C@H](Cc2ccc(-c3ccccc3)cc2)NC(=O)[C@H](C(C)C)NC(=O)[C@H](Cc2c[nH]c3ccccc23)NC(=O)[C@H](CC(=O)O)NC(=O)[C@H](Cc2ccc(OCC(=O)O)cc2)NC(=O)[C@H](Cc2ccncc2)NC(=O)CSC[C@@H](C(=O)N[C@@H](C)C(N)=O)NC(=O)[C@H]([C@@H](C)O)NC(=O)[C@H](C(C)C)NC(=O)[C@H](CC2CCCCC2)NC(=O)[C@H](CCN)NC1=O [Compound 1390]  0.0165 µM
8. Cc1cccc(C[C@@H]2NC(=O)[C@H](CC(=O)O)NC(=O)[C@H](Cc3ccc(OCC(=O)O)cc3)NC(=O)[C@H](CCN)NC(=O)CSC[C@@H](C(=O)N[C@@H](CCN)C(N)=O)NC(=O)[C@H](CCC(=O)O)NC(=O)[C@H](C(C)(C)O)NC(=O)[C@H](CC3CCCCC3)NC(=O)[C@H](CCN)NC(=O)[C@@H](CC(C)C)NC(=O)[C@H](CCCN)NC(=O)[C@H](Cc3ccc(OC(F)(F)F)cc3)NC(=O)[C@H](Cc3ccc(-c4ccccc4)cc3)NC(=O)[C@H](Cc3ccc(OCC(=O)O)cc3)NC2=O)c1 [Compound 2694] ({CH2CO}-[Dab]Y(Carboxymethyl)D[Phe(3-Me)]Y(Carboxymethyl)[Bip]Y(CF3)[Orn][dL][Dab][Cha][Val(3-OH)]EC[Dab]-NH2; thioether N-14)  0.0165 µM
9. Cc1cccc(C[C@@H]2NC(=O)[C@H](CC(=O)O)NC(=O)[C@H](Cc3ccc(C(=O)O)cc3)NC(=O)[C@H](Cc3ccc(OCC(=O)O)cc3)NC(=O)CSC[C@@H](C(=O)N[C@@H](C)C(N)=O)NC(=O)[C@H]([C@@H](C)O)NC(=O)[C@H](C(C)C)NC(=O)[C@H](CC3CCCCC3)NC(=O)[C@H](CCN)NC(=O)[C@@H](CC(C)C)NC(=O)[C@H](CCCN)NC(=O)[C@H](CCCN)NC(=O)[C@H](Cc3ccc(-c4ccccc4)cc3)NC(=O)[C@H](C(C)C)NC2=O)c1 [Compound 1414]  0.0099 µM
10. C#CC[C@H](NC(=O)[C@H](CCN)NC(=O)[C@@H]1CSCC(=O)N[C@@H](CN)C(=O)N[C@@H](Cc2ccc(C(=O)O)cc2)C(=O)N[C@@H](CC(=O)O)C(=O)N[C@@H](Cc2cccc(C)c2)C(=O)N[C@@H](Cc2ccc(C(=O)O)cc2)C(=O)N[C@@H](Cc2ccc(-c3ccccc3)cc2)C(=O)N[C@@H](Cc2ccc(C(=O)O)cc2)C(=O)N[C@@H](CCCN)C(=O)N[C@H](CC(C)C)C(=O)N[C@@H](CCN)C(=O)N[C@@H](CC2CCCCC2)C(=O)N[C@@H](C(C)(C)O)C(=O)N[C@@H](CO)C(=O)N1)C(N)=O [Compound 1845] ({CH2CO}-[Dap][Phe(4-COOH)]D[Phe(3-Me)][Phe(4-COOH)][Bip][Phe(4-COOH)][Orn][dL][Dab][Cha][Val(3-OH)]SC[Dab][Pra]-NH2; thioether N-14)  0.0073 µM
